Data: patent US10905738B2, “Synthetic peptides, prodrugs, pharmaceutical compositions and uses” (Biozeus Desenvolvimento De Produtos Biofarmacêuticos, priority 2018, dated 2021)

What follows are sequences tested on smooth muscle of tracheal rings (assay: spasmodic contraction of tracheal rings ex vivo (histamine-induced)). Conditions: histamine-induced contraction ex vivo.
Set-up: species or system Dunkin-Hartley guinea pigs
Experimental: The magnitude of the relaxing effect of the peptides was evaluated by means of a model of spasmodic contraction of tracheal rings ex vivo, largely employed to test new bronchodilating agents (see CULLUM, V. A., FARMER, J. B., JACK, D., LEVY, G. P. Salbutamol: a new, selective β-adrenoceptive receptor stimulant. British journal of pharmacology, 35(1): 141-151. 1969; KAO, C. H., CHU, Y. H., WANG, H. W. Effects of lidocaine on rat's isolated tracheal smooth muscle. European Archives of Oto-Rhino-Laryngology, 267(5): 817-820. 2010; SORIANO-URSÚA, M. A., VALENCIA-HERNÁNDEZ, I., ARELLANO-MENDOZA, M. G., CORREA-BASURTO, J., TRUJILLO-FERRARA, J. G. Synthesis, pharmacological and in silico evaluation of 1-(4-dihydroxy-3, 5-dioxa-4-borabycyclo [4.4.0] deca-7,9,11-trien-9-yl)-2-(tert-butylamine) ethanol, a compound designed to act as a β2 adrenoceptor agonist. European journal of medicinal chemistry, 44(7): 2840-2846. 2009).
For each test, Dunkin-Hartley guinea pigs (400-500 g) were euthanized in a CO2 atmosphere; subsequently, the trachea was exposed, removed and sectioned in segments of 1 to 3 cartilaginous tracheal rings. Each segment was transferred to an individual organ bath system containing Krebs nutritive solution (NaCl 118 mM; KCl […]; CaCl2) 2.5 mM; MgSO4 1.2 mM; KH2PO4 1.2 mM; NaHCO324 mM; glucose 11 mM) at 37° C., under constant aeration with a carbogenic mixture (95% of O2 and 5% of CO2). In each system, a stem fixed to the base of the container and another connected to an isometric transducer (GRASS FT-03) made up the support of the fragments. A data digitizing system connected to the isometric transducer allowed the recording of tension variations produced by the contraction of the tracheal rings (PowerLab™ 16/30, LabChart, version 8.1, AD Instruments, Australia). The basal tension was adjusted to 1 g, and subsequently, the contractility of the fragments was evaluated by a stimulus with carbachol (2.5 μM). After 1 h at rest, the basal tension was recovered and the tissues were subjected to contraction induced by histamine (50 μM) followed by exposure to increasing concentrations of the treatments (0.01 to 10 μM; n=8) or the comparator PnTx(19).
Table 1 lists the mean±SEM of the potency values, shown as the negative logarithm of the concentration that reduced the voltage to 50% of the maximum Histamine-induced contraction (pEC50), and efficacy (Emax), calculated from at least 8 independent tests using the sigmoid nonlinear regression equation of the software Graph Prism 5.0 (GraphPad Software, La Jolla, Ca, USA).

Sequence	relaxing effect on airway (tracheal ring) smooth muscle, in words
RAYFWIAWYKLANSK [SEQ ID NO: 1, Ac-Arg-Ala-Tyr-Phe-Trp-Ile-Ala-Trp-Tyr-Lys-Leu-Ala-Asn-Ser-Lys-NH2]	effective
RQAFWIAWYKLANSK [SEQ ID NO: 3, Ac-Arg-Gln-Ala-Phe-Trp-Ile-Ala-Trp-Tyr-Lys-Leu-Ala-Asn-Ser-Lys-NH2]	effective
RQYFWIAWYKLANSA [SEQ ID NO: 2, Ac-Arg-Gln-Tyr-Phe-Trp-Ile-Ala-Trp-Tyr-Lys-Leu-Ala-Asn-Ser-Ala-NH2]	effective

Same assay, conditions: relaxation of tracheal rings contracted by histamine (50 μM); mean±SEM

Sequence	Effectiveness (Emax) (%)
IAWYKGGGGGIAWYK [SEQ ID NO: 28, Ac-Ile-Ala-Trp-Tyr-Lys-Gly-Gly-Gly-Gly-Gly-Ile-Ala-Trp-Tyr-Lys-NH2]	Inactive
IAWYKGGGGGIAWYKGGGGGIAWYK [SEQ ID NO: 30]	Inactive
IAWYKRGGGGGRKYWAI [SEQ ID NO: 29, Ac-Ile-Ala-Trp-Tyr-Lys-Arg-Gly-Gly-Gly-Gly-Gly-Arg-Lys-Tyr-Trp-Ala-Ile-NH2]	Inactive
RAYFWIAWYKLANSK [SEQ ID NO: 1, Ac-Arg-Ala-Tyr-Phe-Trp-Ile-Ala-Trp-Tyr-Lys-Leu-Ala-Asn-Ser-Lys-NH2]	45.7 ± 4.3%
RQAFWIAWYKLANSK [SEQ ID NO: 3, Ac-Arg-Gln-Ala-Phe-Trp-Ile-Ala-Trp-Tyr-Lys-Leu-Ala-Asn-Ser-Lys-NH2]	36.7 ± 1.9%
RQYFWIAWYKIASNK [SEQ ID NO: 6, Ac-Arg-Gln-Tyr-Phe-Trp-Ile-Ala-Trp-Tyr-Lys-Ile-Ala-Ser-Asn-Lys-NH2]	25.3 ± 1.7%
RQYFWIAWYKLANSA [SEQ ID NO: 2, Ac-Arg-Gln-Tyr-Phe-Trp-Ile-Ala-Trp-Tyr-Lys-Leu-Ala-Asn-Ser-Ala-NH2]	40.4 ± 2.6%

Same assay, conditions: tracheal rings contracted by histamine (50 μM); peptides 0.01 to 10 μM; mean±SEM

Sequence	Potency (pEC50) Molar
IAWYKGGGGGIAWYK [SEQ ID NO: 28, Ac-Ile-Ala-Trp-Tyr-Lys-Gly-Gly-Gly-Gly-Gly-Ile-Ala-Trp-Tyr-Lys-NH2]	Inactive
IAWYKGGGGGIAWYKGGGGGIAWYK [SEQ ID NO: 30]	Inactive
IAWYKRGGGGGRKYWAI [SEQ ID NO: 29, Ac-Ile-Ala-Trp-Tyr-Lys-Arg-Gly-Gly-Gly-Gly-Gly-Arg-Lys-Tyr-Trp-Ala-Ile-NH2]	Inactive
RAYFWIAWYKLANSK [SEQ ID NO: 1, Ac-Arg-Ala-Tyr-Phe-Trp-Ile-Ala-Trp-Tyr-Lys-Leu-Ala-Asn-Ser-Lys-NH2]	7.1 ± 0.4 Molar
RQAFWIAWYKLANSK [SEQ ID NO: 3, Ac-Arg-Gln-Ala-Phe-Trp-Ile-Ala-Trp-Tyr-Lys-Leu-Ala-Asn-Ser-Lys-NH2]	6.8 ± 0.2 Molar
RQYFWIAWYKIASNK [SEQ ID NO: 6, Ac-Arg-Gln-Tyr-Phe-Trp-Ile-Ala-Trp-Tyr-Lys-Ile-Ala-Ser-Asn-Lys-NH2]	7.0 ± 0.3 Molar
RQYFWIAWYKLANSA [SEQ ID NO: 2, Ac-Arg-Gln-Tyr-Phe-Trp-Ile-Ala-Trp-Tyr-Lys-Leu-Ala-Asn-Ser-Ala-NH2]	6.9 ± 0.2 Molar
